Like-named read-outs stand apart in the source and are kept apart here.
Tests used:
[1] = test system: clusters of grape (variety: Crimson); assay: Estimated transpiration ratio of grape clusters (Example 9); format: in vivo; details: 10 g/L; 8 days after treatment
Mikan = details: 6 days after treatment
Tomato = details: 6 days after treatment
[2] = test system: fruit of grape (variety: Red Globe)
Experimental: An agent for increasing a sugar content in a fruit (containing Sorbon T-20 as a spreader/sticker at a final concentration of 200 μL/L) diluted with water to have a potassium hydrogen carbonate concentration of 10 g/L was prepared. The mass of fruit of grape (variety: Red Globe) purchased on the market was measured. Then, the prepared agent for increasing a sugar content in a fruit was applied by spraying to the fruit of grape. Then, the fruit of grape was allowed to stand in an air-conditioned greenhouse (temperature: 25° C.), and the mass was measured over time (date of application: Apr. 27, 2011; dates of test: May 2, 2011, May 6, 2011, May 9, 2011, May 11, 2011, May 13, 2011, and May 16, 2011). In addition, as a control, the mass of untreated grape was measured on each date of measurement in the same manner.
On the basis of the measured mass, the estimated amount (cumulative value) of transpiration and the estimated amount of transpiration per day were calculated. The results are shown in Tables 5 and 6 and FIGS. 10 and 11.
Note that the vertical axis in FIG. 10 represents the mass (g) of the fruit of grape on each of the dates of measurement per 100 g of the fruit of grape on the date of application, and the vertical axis in FIG. 11 represents the estimated amount (g) of transpiration on each of the dates of measurement per 100 g of the fruit of grape on the date of application. The estimated amount (g) of transpiration on each of the dates of measurement per 100 g of the fruit of grape on the date of application=(the mass (g) of the fruit of grape on the date of application−the mass (g) of the fruit of grape on the date of measurement)/the mass of the fruit of grape on the date of application×100

O=S(=O)([O-])[O-].[Mg+2] [Magnesium sulfate, reference compound]
Estimated transpiration ratio (%) Average [1]: 23% | Estimated transpiration ratio (%) First [1]: 23%

CC(=O)[O-].[K+] [Potassium acetate, potassium acetate]
Estimated transpiration ratio (%) Average [1]: 35% | Estimated transpiration ratio (%) First [1]: 35% | Estimated transpiration ratio (%) Second [1]: 35%

[Cl-].[K+] [Potassium chloride, reference compound]
Estimated transpiration ratio (%) Average [1]: 25% | Estimated transpiration ratio (%) First [1]: 25%

O=S(=O)([O-])[O-].[K+].[K+] [Potassium sulfate, reference compound]
Estimated transpiration ratio (%) Average [1]: 24% | Estimated transpiration ratio (%) First [1]: 24%

CC(=O)[O-].O.O.O.[Na+] [Sodium acetate trihydrate]
Estimated transpiration ratio (%) Average [1]: 34% | Estimated transpiration ratio (%) First [1]: 35% | Estimated transpiration ratio (%) Second [1]: 33%

CC(=O)[O-].[Na+] [Sodium acetate, sodium acetate]
Ratio (%) of decrease in body weight of fruit (Mikan; dilution ratio 50 (20 g/L)): 11.4% | Ratio (%) of decrease in body weight of fruit (Mikan; dilution ratio 100 (10 g/L)): 11.2% | Ratio (%) of decrease in body weight of fruit (Tomato; dilution ratio 50 (20 g/L)): 14.5% | Ratio (%) of decrease in body weight of fruit (Tomato; dilution ratio 100 (10 g/L)): 15.6%

O=C([O-])[O-].[Na+].[Na+] [Sodium carbonate, sodium carbonate]
Estimated amount (g) of transpiration per 100 g of fruit on date of application ([2]; 5 days later): 14.1 g | Mass (g) of fruit per 100 g of fruit on date of application ([2]; 5 days later (applied Apr. 27)): 85.9 g | Estimated amount (g) of transpiration per 100 g of fruit on date of application ([2]; 9 days later): 24.1 g | Mass (g) of fruit per 100 g of fruit on date of application ([2]; 9 days later): 75.9 g | Estimated amount (g) of transpiration per 100 g of fruit on date of application ([2]; 12 days later): 30.3 g | Mass (g) of fruit per 100 g of fruit on date of application ([2]; 12 days later): 69.7 g | Estimated amount (g) of transpiration per 100 g of fruit on date of application ([2]; 14 days later): 34.6 g | Mass (g) of fruit per 100 g of fruit on date of application ([2]; 14 days later): 65.4 g | Estimated amount (g) of transpiration per 100 g of fruit on date of application ([2]; 16 days later): 38.7 g | Mass (g) of fruit per 100 g of fruit on date of application ([2]; 16 days later): 61.3 g | Estimated amount (g) of transpiration per 100 g of fruit on date of application ([2]; 19 days later): 44.5 g | Mass (g) of fruit per 100 g of fruit on date of application ([2]; 19 days later): 55.5 g | Ratio (%) of decrease in body weight of fruit (Mikan; dilution ratio 100 (10 g/L)): 10.4% | Ratio (%) of decrease in body weight of fruit (Tomato; dilution ratio 100 (10 g/L)): 12.7% | Estimated transpiration ratio (%) Average [1]: 32% | Estimated transpiration ratio (%) First [1]: 32%

[Cl-].[Na+] [Sodium chloride, reference compound]
Estimated transpiration ratio (%) Average [1]: 22% | Estimated transpiration ratio (%) First [1]: 22%

O=C([O-])O.[Na+] [Sodium hydrogen carbonate, sodium hydrogen carbonate]
Estimated amount (g) of transpiration per 100 g of fruit on date of application ([2]; 5 days later): 12.4 g | Mass (g) of fruit per 100 g of fruit on date of application ([2]; 5 days later (applied Apr. 27)): 87.6 g | Estimated amount (g) of transpiration per 100 g of fruit on date of application ([2]; 9 days later): 21.7 g | Mass (g) of fruit per 100 g of fruit on date of application ([2]; 9 days later): 78.3 g | Estimated amount (g) of transpiration per 100 g of fruit on date of application ([2]; 12 days later): 27.3 g | Mass (g) of fruit per 100 g of fruit on date of application ([2]; 12 days later): 72.7 g | Estimated amount (g) of transpiration per 100 g of fruit on date of application ([2]; 14 days later): 31.5 g | Mass (g) of fruit per 100 g of fruit on date of application ([2]; 14 days later): 68.5 g | Estimated amount (g) of transpiration per 100 g of fruit on date of application ([2]; 16 days later): 35.6 g | Mass (g) of fruit per 100 g of fruit on date of application ([2]; 16 days later): 64.4 g | Estimated amount (g) of transpiration per 100 g of fruit on date of application ([2]; 19 days later): 41.5 g | Mass (g) of fruit per 100 g of fruit on date of application ([2]; 19 days later): 58.5 g | Ratio (%) of decrease in body weight of fruit (Mikan; dilution ratio 100 (10 g/L)): 11.4% | Ratio (%) of decrease in body weight of fruit (Tomato; dilution ratio 100 (10 g/L)): 12.8% | Estimated transpiration ratio (%) Average [1]: 30% | Estimated transpiration ratio (%) First [1]: 33% | Estimated transpiration ratio (%) Second [1]: 28%

O=C([O-])CC(O)(CC(=O)[O-])C(=O)[O-].[K+].[K+].[K+] [Tripotassium citrate]
Estimated transpiration ratio (%) Average [1]: 30% | Estimated transpiration ratio (%) First [1]: 32% | Estimated transpiration ratio (%) Second [1]: 28%

O=P([O-])([O-])[O-].[K+].[K+].[K+] [Tripotassium phosphate, tripotassium phosphate]
Estimated amount (g) of transpiration per 100 g of fruit on date of application ([2]; 5 days later): 15.9 g | Mass (g) of fruit per 100 g of fruit on date of application ([2]; 5 days later (applied Apr. 27)): 84.1 g | Estimated amount (g) of transpiration per 100 g of fruit on date of application ([2]; 9 days later): 26.3 g | Mass (g) of fruit per 100 g of fruit on date of application ([2]; 9 days later): 73.7 g | Estimated amount (g) of transpiration per 100 g of fruit on date of application ([2]; 12 days later): 33.1 g | Mass (g) of fruit per 100 g of fruit on date of application ([2]; 12 days later): 66.9 g | Estimated amount (g) of transpiration per 100 g of fruit on date of application ([2]; 14 days later): 37.6 g | Mass (g) of fruit per 100 g of fruit on date of application ([2]; 14 days later): 62.4 g | Estimated amount (g) of transpiration per 100 g of fruit on date of application ([2]; 16 days later): 41.1 g | Mass (g) of fruit per 100 g of fruit on date of application ([2]; 16 days later): 58.3 g | Estimated amount (g) of transpiration per 100 g of fruit on date of application ([2]; 19 days later): 47.4 g | Mass (g) of fruit per 100 g of fruit on date of application ([2]; 19 days later): 52.8 g

— patent US10080366B2, “Agent for increasing sugar content in fruit” (RIKEN, priority 2012, dated 2018)
